{"source": "patent US8415310B2", "about": "“Isoxazoline derivatives as antiparasitic agents” (AH USA 42 LLC, priority 2010, dated 2013)", "key": {"Ctenocephalides felis": {"test_system": "Ctenocephalides felis", "experiment": "Flea (Ctenocephalides felis) Membrane Feed Assay-Adult", "format": "in vivo", "description": "Flea (Ctenocephalides felis) Membrane Feed Assay-Adult\nComparative Data: Flea Feed Assay\nComparator compounds T1 and T2 were tested in the flea feed assay, as described above, and are compared to Examples 39 and 43, respectively. The compounds T1 (WO2008/122375) and T2 (US2009/0156643) represent the closet exemplified art. The data represents the 24 hour time period. Endpoint data were recorded as an lethal dose 90% (LD^90) in μg/mL. […] Comparator compounds T1 and T2 both had LD^90 values of >30 […]."}, "Lepeophtheirus salmonis": {"test_system": "Lepeophtheirus salmonis", "experiment": "Copepod (Lepeophtheirus salmonis) BioAssay", "format": "in vivo", "conditions": "pre-adult/adult salmon lice exposed for 24 hours in sea water", "description": "Copepod (Lepeophtheirus salmonis) BioAssay\nTwo Formula (1) compounds were dissolved in sea water. Negative control was sea water and positive control was emamectin benzoate. Ten pre-adult/adult salmon lice were exposed for 24 hours. Lice were monitored for motility and endpoint data was recorded as an Effective Concentration 100% (EC^100) based on immotility."}, "[1]": {"conditions": "comparative data, flea feed assay, 24 hour time period"}}}
{"smiles": "O=C(CC(F)(F)F)N1CC(F)(c2ccc(C3=NOC(c4cc(Cl)cc(Cl)c4)(C(F)(F)F)C3)cc2)C1", "note": "(centres unmarked) [Example 43, 1-(3-(4-(5-(3,5-Dichlorophenyl)-5-(trifluoromethyl)-4,5-dihydroisoxazol-3-yl)phenyl)-3-fluoroazetidin-1-yl)-3,3,3-trifluoropropan-1-one]", "values": [{"measurement": "lethal dose 90% (LD^90)", "setting": "Ctenocephalides felis; [1]", "value": "≤ 1", "unit": "µg/mL"}]}
{"smiles": "CC(=O)N1CC(F)(c2ccc(C3=NOC(c4cc(Cl)cc(Cl)c4)(C(F)(F)F)C3)cc2)C1", "note": "(centres unmarked) [Example 39, 1-(3-(4-(5-(3,5-Dichlorophenyl)-5-(trifluoromethyl)-4,5-dihydroisoxazol-3-yl)phenyl)-3-fluoroazetidin-1-yl)ethanone]", "values": [{"measurement": "lethal dose 90% (LD^90)", "setting": "Ctenocephalides felis; [1]", "value": "≤ 3", "unit": "µg/mL"}]}
{"smiles": "O=C(CC(F)(F)F)N1CC(F)(c2ccc(C3=NOC(c4cc(Cl)c(F)c(Cl)c4)(C(F)(F)F)C3)cc2)C1", "note": "(racemic) [Example 19, 1-(3-(4-(5-(3,5-dichloro-4-fluorophenyl)-5-(trifluoromethyl)-4,5-dihydroisoxazol-3-yl)phenyl)-3-fluoroazetidin-1-yl)-3,3,3-trifluoropropan-1-one]", "values": [{"measurement": "Effective Concentration 100% (EC^100) based on immotility", "setting": "Lepeophtheirus salmonis", "value": 50, "unit": "ppb"}]}
{"smiles": "CC(C)C(=O)N1CC(F)(c2ccc(C3=NOC(c4cc(Cl)c(F)c(Cl)c4)(C(F)(F)F)C3)cc2)C1", "note": "(single isomer, unassigned) [Example 177, 5-(3,5-dichloro-4-fluorophenyl)-3-[4-(3-fluoro-1-isobutyrylazetidin-3-yl)phenyl]-5-(trifluoromethyl)-4,5-dihydroisoxazole]", "values": [{"measurement": "Effective Concentration 100% (EC^100) based on immotility", "setting": "Lepeophtheirus salmonis", "value": 50, "unit": "ppb"}]}
{"smiles": "O=C(NC1CC1)N1CC(F)(c2ccc(C3=NOC(c4cc(Cl)cc(Cl)c4)(C(F)(F)F)C3)cc2)C1", "note": "(centres unmarked) [Example 10, N-cyclopropyl-3-(4-(5-(3,5-dichlorophenyl)-5-(trifluoromethyl)-4,5-dihydroisoxazol-3-yl)phenyl)-3-fluoroazetidine-1-carboxamide]", "values": [{"measurement": "lethal dose 90% (LD^90)", "setting": "Ctenocephalides felis; adult fleas fed on treated citrated bovine blood approximately 2 hours, knockdown and/or death at approximately 2 and 24 hours", "value": "≤ 0.03", "unit": "µg/mL"}]}
